In the case of `CC(CCC(N)=O)n1nc2ccccc2n1` (centres undefined), the log partition coefficient (logP) was found to be 1.35.
Take `CCOC(=O)CC(C)n1nnc2ccccc21` (centres undefined): the lipophilicity (logP) was 2.27.
With `CC(CCC(=O)O)n1nnc2ccccc21` (centres undefined) the figure was 0.15; with `CCC(C(N)=O)n1nc2ccccc2n1` (centres undefined), 1.25.
With `CCC(C(N)=O)n1nnc2ccccc21` (centres undefined) the figure was 0.88; with `c1ccc2nn(C3CCCCC3)nc2c1`, 3.63.
Next, `c1ccc2c(c1)nnn2C1CCCC1`: 2.61.
`CCCCC(C(=O)OCC)n1nnc2ccccc21` (centres undefined) came in with a logP of 3.32.
As for `CC(C)(C(=O)O)n1nnc2ccccc21`, the logP was -0.2.
Take `CCCC(C(N)=O)n1nc2ccccc2n1` (centres undefined): the logP amounted to 1.75.
Molecule `CCCCC(C(=O)OCC)n1nc2ccccc2n1` (centres undefined) displayed a lipophilicity (logP) of 3.88.
With `CCCC(C(=O)OCC)n1nc2ccccc2n1` (centres undefined) the figure was 3.38; with `CCOC(=O)C(CC)n1nnc2ccccc21` (centres undefined), 2.34.
Next, `CC(CC(=O)O)n1nnc2ccccc21` (centres undefined): -0.2; `CCCCC(C(N)=O)n1nnc2ccccc21` (centres undefined): 1.88.
Next, `CC(C)(C(=O)O)n1nc2ccccc2n1`: 0.64; `CCOC(=O)C(CC)n1nc2ccccc2n1` (centres undefined): 2.88.
As for `c1ccc2c(c1)nnn2C1CCCCC1`, the logP came to 3.11.
In turn, `CCCCC(C(N)=O)n1nc2ccccc2n1` (centres undefined) yielded a lipophilicity (logP) of 2.28.
For the molecule `CCCC(C(=O)OCC)n1nnc2ccccc21` (centres undefined), the log partition coefficient (logP) amounted to 2.82.
Next, `CC(C(N)=O)n1nc2ccccc2n1` (centres undefined): 0.86.
Next, `CCOC(=O)C(C)n1nc2ccccc2n1` (centres undefined): 2.38; `CCCC(C(N)=O)n1nnc2ccccc21` (centres undefined): 1.38.
With `CCOC(=O)C(C)n1nnc2ccccc21` (centres undefined) the figure was 1.87; with `CC(C)(C(N)=O)n1nnc2ccccc21`, 0.76; with `c1ccc2nn(C3CCCC3)nc2c1`, 3.04.
For the molecule `CC(C)(C(N)=O)n1nc2ccccc2n1`, the logP came to 1.16.
Take `CC(CCC(=O)O)n1nc2ccccc2n1` (centres undefined): the logP worked out at 0.69.
With `CCOC(=O)CC(C)n1nc2ccccc2n1` (centres undefined) the figure was 2.7.
